This is an account of results in patent US20040132188A1, “Use of non-complexing peptides for the preparation of a composition for transfection of a polynucleotide into a cell and compositions useful in gene therapy” (priority 2001, published 2004).

A short description of data set [1]: Liposome leakage assay, POPC/cholesterol 3:2 liposomes. The settings on record: for liposome leakage activity / calcein release: POPC/chol liposomes, pH 7. Format: biochemical. An excerpt: FIG. 9: Liposome leakage assay. […] Emitted fluorescence was plotted against peptide concentration. […] C) Comparison of ppTG1, ppTG20 and ppTG21 at pH 7.
Leakage activity was plotted against peptide concentration.

A further data set deals with HeLa cells. Description: Transfection in vitro, luciferase plasmid pTG11236. It is filed as cell-based. The settings on record: for transfection / gene transfer efficiency in vitro: 50 ng pTG11236, increasing amounts of peptide, day 1. On the procedure:
Cells were plated on 24 well plates at a density of 4×10^4 (293-EBNA ) or 7×10^4 (HeLa, Renca) cells/well in DMEM supplemented with 10% FCS. The next day, the medium was replaced by 200 μl serum-free DMEM and plasmid (PTG11056 or pTG11236)/peptide complexes or plasmid/peptide/lipid complexes were prepared in 30 μl 0.9% NaCl or 5% glucose. After 20 min at room temperature these complexes were added to the cells which were then incubated for 2-3 h at 37° C. and 5% CO2 before 1 ml serum-containing DMEM was added. Approximately 20 hours later, cells were lysed by addition of 100 μl 1× Promega lysis buffer, 20 μl of the lysates were analysed for luciferase activity. Proteins were quantified with the bicinchonic acid (BCA) colorimetric method (Smith, Anal. Biochem. 150 (1985), 76-85). […]
HeLa cells were seeded at a density of 6×10^4 cells on 24 well plates. The next day, cells were incubated with 200 μl serum-free medium, 30 μl of plasmid (50 ng)/peptide/lipid mixtures were added and incubated for 3 h at 37° C. in 5% CO2. 1 ml of DMEM+10% FCS was then added. The next day, the medium was removed and cells were washed with 500 μl of PBS and subsequently treated with 100 μl of Promega lysis buffer. Plates were stored at −80° C. until luciferase activity was measured of 20 μl of the cell lysate. The protein assay was performed using the Pierce BCA kit.
JTS1 was dissolved to 1 mg/ml in 1 mM NaOH and mixed with DNA diluted in 5% glucose. ppTG1 was then added to this solution. The pcTG90/DOPE ppTG1 mixtures were prepared as described in Example 6. Transfection assays were performed on HeLa cells with 50 ng of plasmid as described in Example 6.
The series of ppTG1 derivatives listed in Material and Methods were tested for their gene transfer efficiencies in Hela cells. 6×10^4 cells were transfected with 50 ng pTG11236 complexed with increasing amounts of peptide. Luciferase activity was analyzed day 1 after transfection. The results are shown in FIG. 10B (ppTG20, ppTG21), FIG. 10C (ppTG25, ppTG26, ppTG27), FIG. 10D (ppTG28 to ppTG33), FIG. 10E (PEG-ppTG1 and PEG-ppTG20), FIG. 10F (ppTG22 to ppTG24) and FIG. 10G (ppTG20-D).

Data set [2] can be described thus: Liposome leakage assay, POPC/cholesterol 3:2 liposomes. It is filed as biochemical. To be noted: POPC/chol liposomes, pH 5.
The conditions of data set [3]: pH 5 versus pH 7; cited from earlier work.
The next data set concerns plasmid pTG11236. The experiment in a line: Gel retardation assay (DNA binding activity). Here is the method:
3 μg of the plasmid pTG11236 were incubated with increasing amounts of the respective peptide in a final volume of 30 μl with 0.9% NaCl. After 20 min of incubation at room temperature, 6 μl 5× loading buffer (glycerol and bromphenol blue in TAE buffer) were added and 10 μl of these solutions were analyzed on a 1% agarose gel in the presence of ethidium bromide.
The ability of ppTG1 peptide to complex DNA was analyzed by gel retardation assays. […] After 20 minutes incubation at room temperature, loading buffer was added and 10 μl of the resulting solution were analyzed on a 1% agarose gel.
ppTG1 derivatives as they are indicated in Materials and Methods, were tested for their capacity to bind plasmid DNA by gel retardation assays.

The subject of the next data set is B6SJL mice, lungs. Description: In vivo gene transfer after intravenous injection, luciferase activity in the lungs. The settings on record: pTG11236/peptide complexes intravenously injected; for gene transfer efficiency in the lung: luciferase day 1. On the procedure:
Mice were sacrificed at day 1.
Lungs were tested for luciferase activity.

Another data set relates to RENCA tumors. Description: In vivo gene transfer after intratumoral injection, luciferase activity in tumors. Set-up: species or system B6D2 mice. To be noted: 10 μg pTG11236, peptide at pH 8, intratumoral, day 1. On the procedure:
4×10^5 RENCA cells (murine kidney tumor cells, ATCC) were injected subcutaneously into B6D2 mice to provoke tumor growth. When tumors reached a size of approximatively 30 mm^3, 30 μl of a 5% glucose solution, containing the luciferase expression plasmid DNA pTG11236 in presence or absence of peptide of the present invention were injected into the tumors. Mice were sacrificed at day 1 after injection, tumors were recovered and homogeinized. Luciferase activity was analyzed and expressed as RLU/g tumor.
The peptide ppTG21 was tested for its capacity to enhance plasmid transfer after intratumoral injection in RENCA tumor-bearing mice. Ten μg of the luciferase expression plasmid pTG11236 were mixed with increasing amounts (i.e. 0.1, 0.6, 3 or 15 micrograms) of ppTG21 at pH 8 (10 mM Tris pH 8). […] In paralell, experiments have been conducted in identical conditions by administering the same plasmid DNA in the presence of increasing amounts (i.e. 0.1%, 0.2%, 0.4% and 0.6 %) of HPC (Hexadecyl-phospho-choline). Plasmid DNA alone, or plasmid DNA in the presence of HPC or ppTG21 were intratumorally injected in similar conditions. Next day, luciferase activities in the tumors was determined (RLU/g tumour).

The mark [4] stands for this setting: 50 ng pTG11236 complexed with 0.9 μg ppTG1 and 0.1 μg JTS1, final charge ratio 5.

Entries after “also recorded” stand apart in the source; their conditions may differ. Square brackets hold non-standard residues; d marks the D form. Ends that are not written are not given here.

As to CGLFKALLKLLKSLWKLLLKA, the “liposome leakage activity / calcein release” value in data set [1] is on record as “slightly reduced”.

Regarding “CGLFKALLKLLKSLWKLLLKAC (cysteine pairing not given here)”, the “liposome leakage activity / calcein release” value in data set [1] was “slightly reduced”.

Regarding GIFKAIIKIIKSIWKIIIKA, the “transfection / gene transfer efficiency in vitro” value in the data set with HeLa cells (HeLa cells) was “diminished; also recorded: reduced”.

Turning to GIFRAIIRIIRSIWRIIIRA, the “liposome leakage activity / calcein release” value in data set [1] was “slightly reduced”. In addition, the “transfection / gene transfer efficiency in vitro” value in the data set with HeLa cells (HeLa cells) is “diminished; also recorded: reduced”.

Regarding “GLFEALLELLESLWELLLEA [reference compound]”, the “liposome leakage activity / calcein release” value is listed as “reduced” in data set [1] and “high lysis activity” in data set [2]. In addition, in the data set with HeLa cells (setting [4]), the “increase of luciferase activity versus best formulation of ppTG1/pcTG90/DOPE” value is listed as “about 10 factor”. Moreover, the “increase of luciferase activity versus pcTG90/DOPE alone” value in the data set with HeLa cells (setting [4]) is “about 1000 factor”. Further, the “lysing of calcein containing phosphatidylcholine liposomes” value in data set [3] is given as “more efficiently than at a pH 7”.

In the case of “GLFEALLELLESLWELLLEACCYKAKKKKKKKKWKKKKQS (cysteine pairing not given here) [reference compound]”, the “retardation of pTG11236” value in the data set on plasmid pTG11236 (3 μg (0.6 nmol) peptide, 3 μg pTG11236) is on record as over 95%. Also, the “liposome leakage activity / calcein release” value in data set [1] was “impeded in calcein release”; in data set [2], “low level release”. In addition, the transfection result in the data set on HeLa cells (0.05 μg plasmid DNA) is “remains low”. Further, the “gene transfer efficiency in the lung” value with B6SJL mice, lungs is listed as “low”.

Consider GLFHALLHLLHSLWHLLLHA, for which the “binding to plasmid DNA” value is “binds plasmid DNA; also recorded: can bind DNA” in the data set on plasmid pTG11236 (pH 5) and “not capable to bind to plasmid DNA” with plasmid pTG11236 (pH 8). In addition, the “liposome leakage activity / calcein release” value in data set [1] was “comparable to ppTG1”. For the same substance, the “transfection / gene transfer efficiency in vitro” value in the data set on HeLa cells (HeLa cells) is “strongly reduced”. Besides, in the data set with RENCA tumors, the “gene expression (luciferase) in tumors after co-injection with plasmid” value is reported as “increase of apparent gene expression; also recorded: dramatic improvement of the nucleic acid transfer efficiency”.

For GLFKKLLKLLKKLWKLLLKA, the “liposome leakage activity / calcein release” value in data set [1] was “comparable to ppTG1 and ppTG20; also recorded: slightly reduced”. In addition, the “transfection / gene transfer efficiency in vitro” value in the data set on HeLa cells (HeLa cells) is “comparable to ppTG1 and ppTG20; also recorded: did not change”.

For GLFRALLRLLRSLWRLLLRA [ppTG20], in the data set with B6SJL mice, lungs, the “toxicity” value was “less toxic than ppTG1”.

GLFRRLLRLLRRLWRLLLRA: the “liposome leakage activity / calcein release” value in data set [1] was “comparable to ppTG1 and ppTG20; also recorded: slightly reduced”. The “transfection / gene transfer efficiency in vitro” value with HeLa cells (HeLa cells) is “comparable to ppTG1 and ppTG20; also recorded: did not change”.

As to GVFKAVVKVVKSVWKVVVKA, in data set [1], the “liposome leakage activity / calcein release” value is “diminished; also recorded: significantly reduced”. Also, the “transfection / gene transfer efficiency in vitro” value with HeLa cells (HeLa cells) was “diminished”. The “gene transfer efficiency in the lung” value in the data set with B6SJL mice, lungs is reported as “drastically reduced; also recorded: did not lead to detectable reporter gene expression”.

For the substance GVFRAVVRVVRSVWRVVVRA, the “liposome leakage activity / calcein release” value in data set [1] is reported as “diminished; also recorded: significantly reduced”. Moreover, the “transfection / gene transfer efficiency in vitro” value with HeLa cells (HeLa cells) is “diminished”.

For “Gly-Leu-Phe-Arg-Ala-Leu-Leu-Arg-Leu-Leu-Arg-Ser-Leu-Trp-Arg-Leu-Leu-Leu-Arg-Ala (G[dL][dF][dR][dA][dL][dL][dR][dL][dL][dR][dS][dL][dW][dR][dL][dL][dL][dR][dA]) [ppTG20-D]”, in data set [1], the “liposome leakage activity / calcein release” value is recorded as “retained”. Moreover, in the data set on HeLa cells (HeLa cells), the “transfection / gene transfer efficiency in vitro” value is “retained; also recorded: as efficient as ppTG1”. The “gene transfer efficiency in the lung” value in the data set on B6SJL mice, lungs was “even higher than with ppTG1; also recorded: even more efficient than ppTG20”.

For the substance “WEAKLAKALAKALAKHLAKALAKALKACEA [reference compound]”, the “liposome leakage activity” value in data set [1] (POPC/Chol (3:2) liposomes, pH not separated (compared at pH 5 and pH 7)) is recorded as “no activity; also recorded: could not liberate calcein”. Also, the figures for the “gene transfer at optimal charge ratio lower than for ppTG1” value in the data set on HeLa cells (50 ng pTG11236) and with HeLa cells (500 ng pTG11236) were 200 fold and 4 fold, respectively. For the same substance, in the data set with HeLa cells (HeLa cells, 50 ng and 500 ng pTG11236), the “best (optimal) charge ratio for gene transfer” value was 7. Moreover, the “gene transfer efficiency in the lung” value in the data set with B6SJL mice, lungs is reported as “undetectable; also recorded: inefficient”.
